Results as given in patent US11485701B2, “Insect repellent compounds and compositions, and methods thereof” (Iowa State University Research Foundation, Inc., priority 2016, dated 2022).
Structures can show the parent of a compound that is named as a salt. Where two headings read alike, the source gives them in different places.

System: Northern house mosquitoes (Culex pipiens)
Assay: Short-term spatial repellency, static air repellency chamber
Format: in vivo
Conditions: for pest or weed control at 0.5 %: Culex pipiens
Method: Northern house mosquitoes (Culex pipiens), a primary carrier of West Nile virus in eastern North America, were obtained from an established colony in the Medical Entomology Laboratory in the Department of Entomology at Iowa State University of Science and Technology, Ames Iowa. Mosquito rearing was performed by established protocols that are maintained by the Medical Entomology Laboratory. Repellency bioassays were performed with adult female mosquitoes that emerged 5-7 days previously. […] Mosquitoes, prior to testing, were held at 27° C., 80% relative humidity, and on a 16:8 hr light:dark photoperiod.
Repellency bioassays were performed using a static air repellency chamber, which has been described in various publications by the Pesticide Toxicology Laboratory at Iowa State University of Science and Technology, Ames, Iowa Briefly, a 9-cm×60-cm glass tube was used to monitor the distribution of mosquitoes at 15 min, 30 min, 60 min, 90 min, 120 min, and 150 min after introducing mosquitoes into the static air repellency chamber. […] One end of the spatial chamber contained a treated filter paper, whereas the other (untreated) end of the spatial chamber was not treated with compound. Controls contained filter papers treated with acetone, the solvent used to make the 0.5% solutions. Each end of the repellency chamber was secured with a 100-mm Petri dish using celluloid tape. After securing the petri dishes with corresponding treated or untreated filter papers to the spatial chamber, mosquitoes were anesthetized with carbon dioxide, and approximately 20 female mosquitoes were placed into each repellency chamber for one replicate. The opening of the spatial repellency chamber was secured with celluloid tape to prevent their escape. Chambers were oriented in opposite directions from the previous replicate to account for any directional effect. Four replicates were performed for data analysis for both the control and treatment groups.
Data for spatial repellency, the percentage repellency, is reported at each of the respective time points in the figures and tables mentioned below. The percentage spatial repellency is the examination of the distribution of mosquitoes and is calculated using the following equation: […]

[1] = 0.25 h, filter paper, 1 mL of 0.5% solution in acetone, air-dried 15 min, 15 min after introduction, read-out: Short-term Percentage repellency 15 min
[2] = 1.5 h, filter paper, 1 mL of 0.5% solution in acetone, air-dried 15 min, 90 min, read-out: Short-term Percentage repellency 90 min
[3] = 2.5 h, filter paper, 1 mL of 0.5% solution in acetone, air-dried 15 min, 150 min, read-out: Short-term Percentage repellency 150 min

Row | Structure (SMILES) | pest or weed control at 0.5 % [1] [%] | pest or weed control at 0.5 % [2] [%] | pest or weed control at 0.5 % [3] [%] | Short-term percentage repellency 150 min at 1/5 the concentration (0.1% (1/5 of 0.5%), 150 minutes, FIG. 6) | Short-term repellency at low concentration, in words (filter paper treated with 0.1%, FIG. 6) | pest or weed control at 0.5 % (0.25 h, read-out: Short-term Percentage repellency 15 min) [%]
1 | CC(C)=CCCC(C)CC(=O)OCC1CCC1 (stereo not drawn) [Compound 2026, cyclobutylmethyl citronellate] | 25 | 37.5 | 25 |  |  | 
2 | C=CCc1ccc(OC(=O)CC(C)C)c(OC)c1 [Compound 1076A, eugenyl isovalerate] | 17.5 |  |  |  |  | 
3 | CC1CCC(C(C)C)C(OC(=O)C2(C)CCC2)C1 (stereo not drawn) [Compound 2210, menthyl 1-methylcyclobutanecarboxylate] | -5 | 62.5 |  |  |  | 
4 | CC(C)=CCCC(C)CC(=O)OCCO (stereo not drawn) [Compound 1052, 2-hydroxyethyl citronellate] | 77.5 | 92.5 | 82.5 |  |  | 
5 | C=C(C)CCOC(=O)CC(C)CCC=C(C)C (stereo not drawn) [Compound 2168, isoprenyl citronellate] | 27.5 | 62.5 | 72.5 |  |  | 
6 | CC(C)=CCCC(C)CCOC(=O)CC(F)(F)F (stereo not drawn) [Compound 2235, citronellyl 3,3,3-trifluoropropanoate] | 12.5 | 62.5 | 77.5 |  |  | 
7 | CC(C)CC(=O)OCC1=CCC2CC1C2(C)C (stereo not drawn) [Compound 2258, myrteryl isovalerate] | 35 | 85 | 87.5 |  |  | 
8 | CC(C)=CCCC(C)CCOC(=O)Cc1cccs1 (stereo not drawn) [Compound 2244, citronellyl thiophen-2-ylacetate] | 32.5 | 45 | 55 |  |  | 
9 | CC(C)=CCC/C(C)=C\COC(=O)CC(C)C [Compound 2255B, neryl isovalerate] | 7.5 | 75 | 80 |  |  | 
10 | CC(C)=CCCC(C)CCOC(=O)c1ccccc1 (stereo not drawn) [Compound 2189, citronellyl benzoate] | 6.5 | 17.5 | 27.5 |  |  | 
11 | Cc1cc(OC(=O)C2CC2)c(C(C)C)cc1[N+](=O)[O-] [Compound 1066B, 4-nitrothymyl cyclopropanecarboxylate] | 37.5 | 57.5 | 70 |  |  | 
12 | Cc1cc(OC(=O)C2CC2)c(C(C)C)cc1Br [Compound 1075B, 4-bromothymyl cyclopropanecarboxylate] | 47.5 | 32.5 | 30 |  |  | 
13 | O=C(OC/C=C/c1ccccc1)C1CC1 [Compound 2038, cinnamyl cyclopropanecarboxylate] | 40 | 57.5 | 60 |  |  | 
14 | CC(C)=CCCC(C)CC(=O)OC1COC1 (stereo not drawn) [Compound 3071, 3-oxetanyl citronellate] | 2.5 | 37.5 | 40 |  |  | 
15 | CC(C)=CCCC(C)CCOC(=O)C1CCC1 (stereo not drawn) [Citronellyl cyclobutanecarboxylate] |  |  |  | approximately 90% | significant levels of repellency | 
16 | Cc1ccc(C(C)C)c(OC(=O)C(F)F)c1 [Compound 2194, thymyl difluoroacetate] |  |  |  |  |  | 20
17 | CC1=CCC(C(C)(C)OC(=O)CC(C)C)CC1 (stereo not drawn) [Compound 2257, alpha-terpinyl isovalerate] | 10 | 55 | 65 |  |  | 

Row | Structure (SMILES) | pest or weed control at 0.5 % [1] [%] | pest or weed control at 0.5 % [2] [%] | pest or weed control at 0.5 % [3] [%] | Short-term percentage repellency 150 min at 1/5 the concentration (0.1% (1/5 of 0.5%), 150 minutes, FIG. 6) | Short-term repellency at low concentration, in words (filter paper treated with 0.1%, FIG. 6) | pest or weed control at 0.5 % (0.25 h, read-out: Short-term Percentage repellency 15 min) [%]
18 | CC(C)=CCC/C(C)=C/COC(=O)CC(C)C [Compound 2255A, geranyl isovalerate] | 35 | 60 | 52.5 |  |  | 
19 | CC(C)=CCCC(C)CC(=O)OCC1(C)COC1 (stereo not drawn) [Compound 3070, (3-methyloxetan-3-yl) methyl citronellate] | 15 | 42.5 | 32.5 |  |  | 
20 | CC(C)=CCCC(C)CCOC(=O)C(C)(C)F (stereo not drawn) [Compound 2208, citronellyl 2-fluoroisobutyrate] | 37.5 | 75 | 77.5 |  |  | 
21 | CC(C)CC(=O)OC1CC(C)CCC1C(C)C (stereo not drawn) [Compound 2256, menthyl isovalerate] | 37.5 | 42.5 | 27.5 |  |  | 
22 | CCCCCCC(=O)OCCC(C)CCC=C(C)C (stereo not drawn) [Compound 2203, citronellyl hexanecarboxylate] | 0 | 10 | 20 |  |  | 
23 | C#CC(C)(C)OC(=O)CC(C)CCC=C(C)C (stereo not drawn) [Compound 2171, 1,1-dimethylpropargyl citronellate] | 37.5 | 67.5 | 62.5 |  |  | 
24 | Cc1cc(OC(=O)C(C)C)c(C(C)C)cc1Cl [Compound 1144B, chlorothymyl isobutyrate] | 40 | 77.5 | 87.5 |  |  | 
25 | CC(C)=CCCC(C)CCOC(=O)c1cccs1 (stereo not drawn) [Compound 2180, Citronellyl thiophene-2-carboxylate] | 0 | 37.5 | 45 |  |  | 
26 | CC(C)=CCCC(C)CCOC(=O)C=C(C)C (stereo not drawn) [Compound 2105, citronellyl 3,3-dimethylacrylate] | 45 | 75 | 65 |  |  | 
27 | CC(C)=CCCC(C)CCOC(=O)CC#N (stereo not drawn) [Compound 2198, citronellyl cyanoacetate] | 37.5 | 32.5 | 40 |  |  | 
28 | CC(C)=CCC/C(C)=C\COC(=O)C1(C)CCC1 [Compound 2108, neryl 1-methylcyclobutanecarboxylate] | 60 | 90 | 85 |  |  | 
29 | CC(C)=CCCC(C)CCOC(=O)C1CC(F)(F)C1 (stereo not drawn) [Compound 3069, citronellyl 3,3-difluorocyclobutanecarboxylate] | 2.5 | 20 | 27.5 |  |  | 
30 | Cc1ccc(C(C)C)cc1OC(=O)CC(C)C [Compound 1079C, carvacryl isovalerate] | -10 | 87.5 | 95 |  |  | 
31 | C=CC(C)(CCC=C(C)C)OC(=O)CC(C)C (stereo not drawn) [Compound 2152, linalyl isovalerate] | 15 | 82.5 | 92.5 |  |  | 
32 | CC(C)=CCCC(C)CCOC=O (stereo not drawn) [Compound 1089, citronellyl formate] | 77.5 | 92.5 | 90 |  |  | 
33 | CC(C)=CCCC(C)CCOC(=O)C(C)(F)F (stereo not drawn) [Compound 2232, citronellyl 2,2-difluoropropanoate] | 50 | 82.5 | 82.5 |  |  | 
34 | CC1CCC(C(C)C)C(OC(=O)Cc2cccs2)C1 (stereo not drawn) [Compound 2245, menthyl thiophen-2-ylacetate] | -35 | 35 | 57.5 |  |  | 
